Measurements reported in publication PMC9865645, “The Impact of N^ε-Acryloyllysine Piperazides on the Conformational Dynamics of Transglutaminase 2” (International Journal of Molecular Sciences, 2023).

Target: T1, hTGase 2 (Homo sapiens, UniProt P21980)
T1 construct: purchased Zedira (Darmstadt, Germany) T022, lot 0716a
T1 sequence (P21980 1-687): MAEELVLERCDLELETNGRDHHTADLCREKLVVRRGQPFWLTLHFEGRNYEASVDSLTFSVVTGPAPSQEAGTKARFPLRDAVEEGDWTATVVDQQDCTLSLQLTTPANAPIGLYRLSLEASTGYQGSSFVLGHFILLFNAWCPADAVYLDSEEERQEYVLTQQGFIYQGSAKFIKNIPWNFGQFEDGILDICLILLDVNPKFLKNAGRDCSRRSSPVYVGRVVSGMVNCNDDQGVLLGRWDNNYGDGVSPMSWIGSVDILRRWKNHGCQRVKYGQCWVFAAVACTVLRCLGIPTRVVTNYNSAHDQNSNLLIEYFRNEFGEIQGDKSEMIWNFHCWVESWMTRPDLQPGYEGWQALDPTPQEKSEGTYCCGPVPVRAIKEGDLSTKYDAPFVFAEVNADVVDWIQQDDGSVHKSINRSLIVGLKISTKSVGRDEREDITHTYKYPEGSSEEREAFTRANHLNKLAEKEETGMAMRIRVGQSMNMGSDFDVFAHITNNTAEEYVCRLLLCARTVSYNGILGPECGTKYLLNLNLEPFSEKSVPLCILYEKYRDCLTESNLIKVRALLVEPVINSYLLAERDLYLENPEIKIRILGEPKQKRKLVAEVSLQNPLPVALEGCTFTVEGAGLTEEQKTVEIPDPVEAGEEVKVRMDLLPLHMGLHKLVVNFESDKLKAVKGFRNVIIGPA
Test: switchSENSE dynamic mode: upward motion (relative inverse slope, friction) of hTGase 2-dsDNA lever
Conditions: GTPγS 20 nM or Ca^2+ 1 mM; non-directed and His-tag-directed labeling
Method: Prior to the measurement of the switching kinetics of the differently conjugated hTGase 2, a complementary ssDNA without the enzyme (500 nM) was hybridized to the single-stranded capture strands on the chip electrodes to obtain the reference kinetics of the dsDNA lever. In addition, to determine the impact of CaCl2 and DMSO on the movement of the bare dsDNA lever, and thus on reference kinetics, its switching behavior was investigated in TE40, TE40 + 1 mM CaCl2, TE40 + 1 mM CaCl2 + 1% DMSO or TE40 + 1 mM CaCl2 + 0.1% DMSO.
Then, the dehybridization of the reference lever occurred during a regeneration step followed by the hybridization with an ssDNA-hTGase 2 conjugate (500 nM). Thereafter, the switching kinetics was recorded. […]
The impact on the hydrodynamic drag of the hTGase 2-functionalized lever was investigated under identical conditions for the three irreversible inhibitors 1–3: At first, the switching kinetics of the dsDNA lever and the hTGase 2-dsDNA conjugates were recorded. Secondly, the switching kinetics of the hTGase 2-dsDNA conjugates during and after Ca^2+ exposure were recorded using TE40 + 1 mM CaCl2 or TE40, respectively. […] In this process, the hydrodynamic drag was analyzed during the exposure to 10 µM inhibitor (for 6 min) dissolved in TE40 + 1 mM CaCl2 + 0.1% DMSO and to TE40 afterward. […]

- relative inverse slope of hTGase 2-dsDNA lever versus pure buffer without effector: significantly smaller
SMILES: Nc1nc2c(ncn2[C@@H]2O[C@H](COP(=O)(O)OP(=O)(O)OP(O)(O)=S)[C@@H](O)[C@H]2O)c(=O)[nH]1 [GTPγS]
